Laboratory results: patent US8017612B2, “Piperazine compound and use thereof as a HCV polymerase inhibitor” (priority 2006, dated 2011)
pIC50: −log10 of the molar value. Where a name gives a salt, the structure may show the parent alone.

How the values were obtained:
[1] = biological target: T1, HCV polymerase (NS5B) type 1a (Hepatitis C virus genotype 1a, UniProt P26664); assay: Assay of enzyme (HCV polymerase) inhibitory activity, type 1a enzyme; format: biochemical, HCV type 1a (cloned from the blood of patients)
T1 construct: made in house; host or cells: Escherichia coli (by the 'similar method' of the 1b enzyme)
In short: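 Reactions ran 60 min at 25° C in 20 mM Tris-HCl pH 7.5, 5 mM MgCl2, 50 mM NaCl, holding genotype 1a NS5B (1.5 μg/ml, Δ47 C-terminus, 6His), substrate RNA 5 μg/ml, UTP 2 μM with tritiated UTP and other NTPs 50 μM. IC50 derived from incorporated radiolabel in filter-trapped RNA relative to uninhibited reaction.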

[2] = biological target: T2, HCV polymerase (NS5B) type 1b (Hepatitis C virus genotype 1b, UniProt P26663); assay: Assay of enzyme (HCV polymerase) inhibitory activity, type 1b enzyme; format: biochemical, HCV BK strain (type 1b)
T2 construct: a region encoding NS5B (J Virol 1991 March, 65(3), 1105-13, 544 amino acids after deletion of 47 amino acids on the C-terminal); 6xHis (C); made in house; host or cells: Escherichia coli
In short: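 IC50 derived from [3H]UTP incorporation into TCA-insoluble RNA, compared with and without test compound. Reaction (25 °C, 60 min, Tris pH 7.5, 5 mM MgCl2): E. coli-expressed 1b NS5B Δ47 with His tag at 0.5 μg/ml, 5 μg/ml run-off substrate RNA, ATP/GTP/CTP 50 μM, UTP 2 μM.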

[3] = HCV polymerase inhibitory activity (IC50), 1a, type 1a enzyme 1.5 μg/ml, 25° C., 60 min
[4] = HCV polymerase inhibitory activity (IC50), 1b, type 1b enzyme 0.5 μg/ml, 25° C., 60 min
[5] = HCV polymerase inhibitory activity IC50, 1a, type 1a enzyme
[6] = HCV polymerase inhibitory activity IC50, 1b, type 1b enzyme

Structure (SMILES) | pIC50 [1, 3] | pIC50 [2, 4] | pIC50 [1, 5] | pIC50 [2, 6]
CCC(F)(F)c1ccc(CNC(=O)[C@H]2CN(C(=O)Cc3nnnn3C)CCN2S(=O)(=O)c2ccc(OC(F)(F)F)cc2)cc1 [Example 519, (R)-4-[2-(1-methyl-1H-tetrazol-5-yl)-acetyl]-1-(4-trifluoromethoxy-benzenesulfonyl)-piperazine-2-carboxylic acid 4-(1,1-difluoro-propyl)-benzylamide] | 6.00 to 7.00 | 6.00 to 7.00 |  | 
CN(C)c1ccc(CNC(=O)[C@H]2CN(C(=O)CN)CCN2S(=O)(=O)c2ccc(I)cc2)cc1 [Example 157, (R)-4-(2-amino-acetyl)-1-(4-iodo-benzenesulfonyl)-piperazine-2-carboxylic acid 4-dimethylamino-benzylamide hydrochloride] | < 6.00 | < 6.00 |  | 
CCC(F)(F)c1ccc(CNC(=O)[C@H]2CN(c3cnc4ccc(Br)cc4n3)CCN2S(=O)(=O)c2ccc(OC(F)(F)F)cc2)cc1 [Example 685, (R)-4-(7-bromo-quinoxalin-2-yl)-1-(4-trifluoromethoxy-benzenesulfonyl)-piperazine-2-carboxylic acid 4-(1,1-difluoro-propyl)-benzylamide] |  |  | 6.00 to 7.00 | 6.00 to 7.00
CCCc1ccc(CNC(=O)[C@H]2CN(C(=O)Cn3nnc(CC(=O)O)n3)CCN2S(=O)(=O)c2ccc(OC(F)(F)F)cc2)cc1 [Example 465, (2-{2-oxo-2-[(R)-3-(4-propyl-benzylcarbamoyl)-4-(4-trifluoromethoxy-benzenesulfonyl)-piperazin-1-yl]-ethyl}-2H-tetrazol-5-yl)-acetic acid] | > 7.00 | > 7.00 |  | 
O=C(NCc1ccc(OC(F)(F)F)cc1)[C@H]1CN(c2nn3c(=O)c(C(F)(F)F)nnc3s2)CCN1S(=O)(=O)c1ccc(OC(F)(F)F)cc1 [Example 1031, (R)-4-(4-oxo-3-trifluoromethyl-4H-[1,3,4]thiadiazolo[2,3-c][1,2,4]triazin-7-yl)-1-(4-trifluoromethoxy-benzenesulfonyl)-piperazine-2-carboxylic acid 4-trifluoromethoxy-benzylamide] |  |  | 6.00 to 7.00 | 6.00 to 7.00
CCCc1ccc(CNC(=O)[C@H]2CN(C(=O)Cn3ncnn3)CCN2S(=O)(=O)c2ccc(OC(F)(F)F)cc2)cc1 [Example 460, (R)-4-(2-tetrazol-2-yl-acetyl)-1-(4-trifluoromethoxy-benzenesulfonyl)-piperazine-2-carboxylic acid 4-propyl-benzylamide] | > 7.00 | > 7.00 |  | 
Nc1nnnc2nc(N3CCN(S(=O)(=O)c4ccc(OC(F)(F)F)cc4)[C@@H](C(=O)NCc4ccc(OC(F)(F)F)cc4)C3)sc12 [Example 1034, (R)-4-(4-amino-thiazolo[4,5-d][1,2,3]triazin-6-yl)-1-(4-trifluoromethoxy-benzenesulfonyl)-piperazine-2-carboxylic acid 4-trifluoromethoxy-benzylamide] |  |  | > 7.00 | > 7.00
Cc1n[nH]c(=O)c2sc(N3CCN(S(=O)(=O)c4ccc(OC(F)(F)F)cc4)[C@@H](C(=O)NCc4ccc(OC(F)(F)F)cc4)C3)nc12 [Example 839, (R)-4-(4-methyl-7-oxo-6,7-dihydro-thiazolo[4,5-d]pyridazin-2-yl)-1-(4-trifluoromethoxy-benzenesulfonyl)-piperazine-2-carboxylic acid 4-trifluoromethoxy-benzylamide] |  |  | > 7.00 | > 7.00
Cn1ncc2nc(N3CCN(S(=O)(=O)c4ccc(OC(F)(F)F)cc4)[C@@H](C(=O)NCc4ccc(OC(F)(F)F)cc4)C3)sc2c1=O [Example 904, (R)-4-(6-methyl-7-oxo-6,7-dihydro-thiazolo[4,5-d]pyridazin-2-yl)-1-(4-trifluoromethoxy-benzenesulfonyl)-piperazine-2-carboxylic acid 4-trifluoromethoxy-benzylamide] |  |  | 6.00 to 7.00 | > 7.00
CCCn1cc(CNC(=O)[C@H]2CN(C(C)=O)CCN2S(=O)(=O)c2ccc(OC(F)(F)F)cc2)cn1 [Example 703, (R)-4-acetyl-1-(4-trifluoromethoxy-benzenesulfonyl)-piperazine-2-carboxylic acid (1-propyl-1H-pyrazol-4-ylmethyl)-amide] |  |  | < 6.00 | < 6.00
CC(=O)N1CCN(S(=O)(=O)c2ccc(C(C)C)cc2)C(C(=O)NCc2ccc(N)cc2)C1 (stereo not shown) [Example 90, 4-acetyl-1-(4-isopropyl-benzenesulfonyl)-piperazine-2-carboxylic acid 4-amino-benzylamide] | < 6.00 | < 6.00 |  | 
O=C(NCc1ccc(OC(F)F)c(F)c1)[C@H]1CN(c2nc3nc(C4CC4)ncc3s2)CCN1S(=O)(=O)c1ccc(OC(F)(F)F)cc1 [Example 1073, (R)-4-(5-cyclopropyl-thiazolo[4,5-d]pyrimidin-2-yl)-1-(4-trifluoromethoxy-benzenesulfonyl)-piperazine-2-carboxylic acid 4-difluoromethoxy-3-fluoro-benzylamide] |  |  | > 7.00 | > 7.00
O=C(NCc1ccc(OC(F)(F)F)cc1)[C@H]1CN(c2nc3nc(C(F)(F)F)[nH]c(=O)c3s2)CCN1S(=O)(=O)c1ccc(OC(F)(F)F)cc1 [Example 1003, (R)-4-(7-oxo-5-trifluoromethyl-6,7-dihydro-thiazolo[4,5-d]pyrimidin-2-yl)-1-(4-trifluoromethoxy-benzenesulfonyl)-piperazine-2-carboxylic acid 4-trifluoromethoxy-benzylamide] |  |  | > 7.00 | > 7.00
CC(=O)N1CCN(S(=O)(=O)c2cccc(C(=O)O)c2)C(C(=O)NCc2ccc(C(F)(F)F)cc2)C1 (stereo not shown) [Example 168, 3-[4-acetyl-2-(4-trifluoromethyl-benzylcarbamoyl)-piperazine-1-sulfonyl]-benzoic acid] | < 6.00 | < 6.00 |  | 
CCC(F)(F)c1ccc(CNC(=O)[C@H]2CN(c3cnc4nsnc4n3)CCN2S(=O)(=O)c2ccc(OC(F)(F)F)cc2)cc1 [Example 691, (R)-4-[1,2,5]thiadiazolo[3,4-b]pyrazin-5-yl-1-(4-trifluoromethoxy-benzenesulfonyl)-piperazine-2-carboxylic acid 4-(1,1-difluoro-propyl)-benzylamide] |  |  | > 7.00 | > 7.00
COC(=O)c1ccc(CNC(=O)C2CN(C(C)=O)CCN2S(=O)(=O)c2ccc(C(C)C)cc2)cc1 (stereo not shown) [Example 76, 4-({[4-acetyl-1-(4-isopropyl-benzenesulfonyl)-piperazine-2-carbonyl]-amino}-methyl)-benzoic acid methyl ester] | < 6.00 | < 6.00 |  | 
CCCCc1ccc(CNC(=O)[C@H]2CN(c3nc4cn[nH]c(=O)c4s3)CCN2S(=O)(=O)c2ccc(OC(F)(F)F)cc2)cc1 [Example 841, (R)-4-(7-oxo-6,7-dihydro-thiazolo[4,5-d]pyridazin-2-yl)-1-(4-trifluoromethoxy-benzenesulfonyl)-piperazine-2-carboxylic acid 4-butyl-benzylamide] |  |  | > 7.00 | > 7.00
COC1(c2ncc3sc(N4CCN(S(=O)(=O)c5ccc(OC(F)(F)F)cc5)[C@@H](C(=O)NCc5ccc(OC(F)(F)F)cc5)C4)nc3n2)CC1 [Example 1079, (R)-4-[5-(1-methoxy-cyclopropyl)-thiazolo[4,5-d]pyrimidin-2-yl]-1-(4-trifluoromethoxy-benzenesulfonyl)-piperazine-2-carboxylic acid 4-trifluoromethoxy-benzylamide] |  |  | > 7.00 | > 7.00
CC(=O)N1CCN(S(=O)(=O)c2ccc(OC(F)(F)F)cc2)[C@@H](C(=O)NCc2ccc(C(C)(C)C)cc2)C1 [Example 529, (R)-4-acetyl-1-(4-trifluoromethoxy-benzenesulfonyl)-piperazine-2-carboxylic acid 4-tert-butyl-benzylamide] | > 7.00 | > 7.00 |  | 
CC(=O)N1CCN(S(=O)(=O)c2ccc(C(C)C)cc2)C(C(=O)NCc2cccc(OC(F)(F)F)c2)C1 (stereo not shown) [Example 121, 4-acetyl-1-(4-isopropyl-benzenesulfonyl)-piperazine-2-carboxylic acid 3-trifluoromethoxy-benzylamide] | < 6.00 | < 6.00 |  | 
COc1ccc(S(=O)(=O)N2CCN(C(C)=O)C[C@@H]2C(=O)NCc2ccc(C(C)C)cc2)cc1C(C)C [Example 215, (R)-4-acetyl-1-(3-isopropyl-4-methoxy-benzenesulfonyl)-piperazine-2-carboxylic acid 4-isopropyl-benzylamide] | 6.00 to 7.00 | > 7.00 |  | 
O=C(NCc1ccc(SC(F)(F)F)cc1)[C@H]1CN(c2cnc3cncnc3n2)CCN1S(=O)(=O)c1ccc(OC(F)(F)F)cc1 [Example 772, (R)-4-pteridin-7-yl-1-(4-trifluoromethoxy-benzenesulfonyl)-piperazine-2-carboxylic acid 4-trifluoromethylsulfanyl-benzylamide] |  |  | > 7.00 | > 7.00
Cc1n[nH]c(=O)c2sc(N3CCN(S(=O)(=O)c4ccc(C(F)(F)F)cc4)[C@@H](C(=O)NCc4ccc(OC(F)(F)F)cc4)C3)nc12 [Example 893, (R)-4-(4-methyl-7-oxo-6,7-dihydro-thiazolo[4,5-d]pyridazin-2-yl)-1-(4-trifluoromethyl-benzenesulfonyl)-piperazine-2-carboxylic acid 4-trifluoromethoxy-benzylamide] |  |  | > 7.00 | > 7.00
